Reference: a melting point compilation (Tetko et al.; mined from patent text by program, amines drawn as free bases though some values may be those of a salt)

| Structure (SMILES) | melting point |
| --- | --- |
| O=c1c2c(n(-c3ccccc3)c3ccccc13)OCC2 | 220 to 221 °C |
| O=C(O)CCc1c[nH]c2c(C(=O)c3ccccc3)cccc12 | 166 °C |
| CCSc1cc(C)nc(SCC)c1NC(=O)CCCCCSc1nc2ccccc2[nH]1 | 139 to 142 °C |
| Cc1oc(-c2ccccc2)nc1COc1cc(CCl)ccn1 | 104 to 105 °C |
| O=C(Nc1ccc(Cl)c(Cl)c1)c1cc(C(F)(F)F)cc([N+](=O)[O-])c1Cl | 202 °C |
| COC(=O)C(Cc1ccccc1)NC(=O)C(CC(=O)O)NC(=O)C(N)C(C)C(=O)O (stereo unspecified) | 172 to 175 °C |
| CCCN(CCC)Cc1nnc(-c2ncn3c2[C@@H]2CCCN2C(=O)c2c(Cl)cccc2-3)o1 | 158 to 160 °C |
| Cc1ccc(N2CCN(S(=O)(=O)c3cccc(/C=C/C(=O)NO)c3)CC2C)cc1 (stereo unspecified) | 186 °C |
| O=C(O)c1cccc(-c2ccc3c(c2)C(Nc2ccc(Cl)cc2Cl)CO3)c1 (stereo unspecified) | 164 to 165 °C |
| O=CNc1cccc2ccccc12 | 134 to 135 °C |
| COc1ccc(Cl)cc1C(=N)Nc1ccc(F)c(NC(=O)/C=C/c2ccccc2Cl)c1 | 229 to 230 °C |
| Cn1c(=O)cc(CCO)c2ccccc21 | 149 to 150 °C |
| CCCCCCCCCCCCCCCCCCCCCC(=O)Nc1ccc(NC(=O)NS(=O)(=O)c2ccc3ccccc3c2)cc1 | 179 °C |
| O=C1C(=C2C=Cc3ccccc3C2)CCCC1=C1C=Cc2ccccc2C1 | 176 °C |
| CS(=O)(=O)c1ncc2cc(Oc3ccccc3F)c(=O)n(-c3ccc(F)cc3)c2n1 | 82.3 to 91.5 °C |
| CCOc1c(OC)cccc1C(=O)Nc1ccc(C(=O)OC)cc1C(=O)OC | 113 to 115 °C |
| CCCCCCCCOCCCN=C=O | 74 to 76 °C |
| COC(=O)C(Cc1ccc(OCCN(C)c2nc3ccccc3o2)cc1)Sc1ccc(C)cc1 (stereo unspecified) | 88.6 to 90.1 °C |
| COc1cccc2c1OC(CN1CC=C(c3c[nH]c4ncccc34)CC1)CO2 (stereo unspecified) | 207 to 210 °C |
| CC1(C)CC(=O)c2c(Oc3ccccc3)sc(-c3cc[nH]n3)c2C1 | 232 to 234 °C |
| COc1ccc(CNC(=O)C23CC4CC(CC(C4)C2)C3)cc1OC | 120 to 122 °C |
| Cc1ccc(-c2ccc3c(c2)C(=O)CC3)cc1 | 121 to 122 °C |
| Cc1ccc(N2CCN(CCCCl)CC2)cc1 | 34 to 36 °C |

| Structure (SMILES) | melting point |
| --- | --- |
| COc1cc(CO)ccc1OCc1nc(-c2cccnc2)oc1C | 117 to 118 °C |
| CCOC(=O)c1cc(Cl)c(Cl)c(C2=NOCC2)c1C | 96 to 97 °C |
| O=C(NC1CCC(CCN2CCC(c3cccc4c3CCO4)CC2)CC1)C(O)C(F)(F)F (racemic) | 179 °C |
| CCOC(=O)CC(=O)c1cc(F)c(F)cc1F | 57 to 59 °C |
| CC(C)(C)c1nc(-c2n[nH]c(=O)o2)nc(C(C)(C)C)c1O | 230 to 232 °C |
| CN1CCC(c2c(O)cc(O)c3c(=O)cc(-c4ccccc4Cl)oc23)C1C(=O)O (stereo unspecified) | 295 to 297 °C |
| Cc1c(Cl)cccc1S(=O)(=O)Nc1nc(CC(=O)N2CCSCC2)cs1 | 103 to 106 °C |
| O=c1ccccn1C(c1ccccc1)c1ccccc1 | 142 to 145 °C |
| CCOC(=O)CN1CC(=O)N(C)c2ccc(NC(=O)NCc3ccccc3)cc2C1=O | 151 °C |
| CN(C)C(=S)SC(C[N+](=O)[O-])c1ccc(Cl)cc1Cl (stereo unspecified) | 127 to 128 °C |
| CCCCn1c(-c2ccc(Cl)c(S(=O)(=O)N(C)C)c2)csc1=Nc1ccccc1C | 104 °C |
| Cc1cccc(NC(=O)NCC(=O)N(CC(=O)OC(C)(C)C)c2ccccc2-c2ccccc2)c1 | 177 °C |
| COc1cc(C(=O)O)cc2c1oc1ccccc12 | 229 to 240 °C |
| COC(=O)CCc1ccc(O)c([N+](=O)[O-])c1 | 60 to 62 °C |
| CCCCCCCC(=O)N(C)Cc1cccc(-c2ccc(C=CC(=O)O)o2)c1 | 96 to 98 °C |
| Cn1nc(N)nc1NCCCOc1cccc(CNCC(F)(F)F)c1 | 62 to 64 °C |
| COC(=O)c1oc(C(C)(C)C)cc1NC(=O)Nc1cccc(Cl)c1Cl | 195 to 197 °C |
| C=CCOc1ccc(CC(=O)NCC(=O)O)cc1Cl | 115 to 119 °C |
| O=C1c2ccccc2C(=O)N1CSc1ccccn1 | 93 to 94 °C |
| CCOCCCC(NC=O)C1(c2ccc(Cl)cc2)CCC1 (stereo unspecified) | 58 to 59 °C |
| CC(=O)Oc1c(C(C)(C)C)cc(C=O)cc1C(C)(C)C | 65.2 to 74.5 °C |
| COC1CC2C3CCC4=CC(=O)CCC4(C)C3(F)CCC2(C)C1(OC(C)=O)C(=O)CCl (stereo unspecified) | 241 to 244 °C |
| CN(C)c1cccc(Oc2cccc(-c3cccc(C(=O)NCCC#N)c3)n2)c1 | 95 to 96 °C |

Results, then the compound that gave them:

| melting point | Structure (SMILES) |
| --- | --- |
| 160 to 161 °C | COc1ccc2c(c1)c(CN(O)C(C)=O)c(C)n2C(=O)c1ccc(Cl)cc1 |
| 265 °C | O=C(c1ccn2c1CSC2c1cccnc1)c1c[nH]c2cc(Br)ccc12 (stereo unspecified) |
| 123 °C | CCCN(CCCc1c[nH]c2ccc(F)cc12)C1COc2c(C(N)=O)ccc(F)c2C1 (stereo unspecified) |
| 128 to 133 °C | CN(C)CC1CCc2cc(OCc3ccc(NC(=O)c4ccccc4)cc3)ccc2C1 (stereo unspecified) |
| 141 to 143 °C | CC(=O)C(Cl)=NNc1ccc(C)cc1 |
| 161 to 162 °C | O=C(Nc1ccc(OCCN2CCCC2=O)c2ccccc12)c1cc(F)cc(N2CCCCC2)c1 |
| 63 to 64 °C | O=C(NCC12CC3CC(CC(C3)C1)C2)c1cc(NCCNCC(O)c2ccccc2)ccc1Cl (stereo unspecified) |
| 56 to 57 °C | O=S1(=O)C=C(Br)C=C1CO |
| 166 to 169 °C | COc1c(Cl)ccc(-c2cc(N)c(Cl)c(C(=O)NOCc3ccccc3)n2)c1F |
| 228 to 230 °C | CCc1nc(N)nc(N)c1-c1cccc(Cl)c1Cl |
| 191 °C | O=C(NC(=O)c1ccccc1Cl)Nc1cc(C(F)(F)F)c(Br)cc1Br |
| 152 to 155 °C | Cc1ccc(N2CCN(c3c(C)c(C)c4c(c3C)CC(C)(C)O4)CC2)cc1 |
| 80 °C | COC(=O)c1ccncc1SCc1ccccc1 |
| 43 to 45 °C | CCOC(=O)CNc1nc(C)c(C(=O)OCC)c(NC(C)CC)c1[N+](=O)[O-] (stereo unspecified) |
| 112 to 113 °C | C=CCOc1ccc(C(=O)CC(C#N)c2ccc(OC)cc2OC)cc1 (stereo unspecified) |
| 120 to 124 °C | CN1CCN(c2ccccc2C=C2C(=O)N(Cc3ccc(Cl)c(Cl)c3)c3ccccc32)CC1 |
| 123 to 137 °C | O=C(c1ccc(F)cc1)C1CCN(CCN(C(=O)c2ccc([N+](=O)[O-])cc2)c2cccc(C(F)(F)F)c2)CC1 |
| 194 to 195 °C | CC(C)n1nc(-c2sc(Nc3ccccn3)nc2-c2ccccc2)ccc1=O |
| 156 °C | O=C1C=CC(=O)C2=C1OCCO2 |
| 117 to 118 °C | Nc1c(OCC(O)CN2CCC(COc3ccccc3)CC2)cccc1[N+](=O)[O-] (stereo unspecified) |
| 300 °C | NS(=O)(=O)c1ccc(-c2c(-c3ccccc3)noc2C(=O)O)cc1 |
| 150 to 152 °C | Cn1nc(-c2ccncc2)n(C)c1=S |
| 243 to 244 °C | O=C(O)Cn1c(=O)c2cc(Cc3ncc[nH]3)ccc2n(Cc2ccc(Cl)c(Cl)c2)c1=O |
| 172 °C | NC(=O)COc1ccc2c(-c3ccccc3F)noc2c1Cl |
| 113 to 115 °C | N#CC1c2ccccc2COc2ccc(Cl)cc21 (stereo unspecified) |
| 258 to 259 °C | O=C1C(O)=C(c2ccc(Cl)cc2)C(=O)C(O)=C1/C=C/c1ccccc1 |
| 133 to 134 °C | O=C(CCBr)OCN1C(=O)NC(c2ccccc2)(c2ccccc2)C1=O |
| 48 to 49 °C | CCOC(=O)C(CCC#N)(C(=O)OCC)c1ncc(C)cc1[N+](=O)[O-] |

| melting point | Structure (SMILES) |
| --- | --- |
| 164 °C | COc1ccc2c(c1OS(=O)(=O)C(F)(F)F)COCc1cc(OC)c(OC)c(OC)c1-2 |
| 144 to 145 °C | CCOC(=O)[C@H](Cc1ccc(O)cc1)NC(=O)c1c(F)cccc1Cl |
| 264 °C | CCn1nc(C(C)(C)C)c2c1C(=O)NCC(c1ccc(O)cc1)=N2 |
| 196 to 199 °C | Clc1cccc(Nc2nc(OCC3CCCCC3)c3[nH]cnc3n2)c1 |
| 105 to 109 °C | CC1(C)CC(=O)N(CC(CS(=O)(=O)c2ccc(-c3ccc(F)cc3)cc2)N(O)C=O)C(=O)C1 (stereo unspecified) |
| 104 °C | O=C(O)CC1(CC(O)=NO)CCCCC1 |
| 88 to 90 °C | COC(=O)[C@H](CC(C)C)NC(=O)c1ccco1 |
| 55 to 60 °C | O=S(=O)(c1ccccc1)c1c[nH]c2ccc(CCO)cc12 |
| 93 to 96 °C | O=C1CC(S(=O)Cc2ccccc2)N1CCCc1ccccc1 (stereo unspecified) |
| 93 to 96 °C | CC(/C=C/[C@H]1C[C@H]1c1ccc2c(c1)C(C)(C)CCC2(C)C)=C\C(=O)O (racemic) |
| 132 to 134 °C | Cc1ccccc1C1SC2(CCN(C)CC2)c2ccccc21 (stereo unspecified) |
| 150 to 151 °C | CCOC(=O)CCCN(C(=O)CN(C(=O)c1ccc(Cl)cc1)c1c(C)cccc1C)c1c(C)cccc1C |
| 113 to 117 °C | Nc1c(SC(F)(F)F)cnn1-c1c(Cl)cc(C(F)(F)F)cc1Cl |
| 229 °C | NC(N)=Nc1nc(-c2cccc(CO)n2)cs1 |
| 140 to 143 °C | CCN(CC)c1ccc(C2(c3c(C)n(CCOC)c4ccccc34)OC(=O)c3ccccc32)c(C)c1 (stereo unspecified) |
| 197 to 202 °C | CCOc1ncc(C(C)=O)cc1C(=O)Nc1c(C(N)=O)nn(C2CCN(C(=O)OC(C)(C)C)CC2)c1CC |
| 268 to 270 °C | CCN1c2c(oc(=O)n(-c3ccccn3)c2=O)-c2ccccc2S1(=O)=O |
| 112 °C | COc1ccc(C=C(C#N)c2ccccn2)cc1OC |
| 183 to 185 °C | COc1ccc(S(=O)(=O)Nc2ccccc2/C=C/c2ccncc2C)cc1 |
| 155 to 157 °C | NCCNC(=S)Nc1c(Br)cccc1Br |
| 149 °C | CCOc1ccc2[nH]c(=O)n(C(C)(C)COC)c2c1 |
| > 300 °C | Cc1[nH]c(=O)c(C#N)cc1-c1ccncc1 |
| 97 to 100 °C | CN1CC(CCCl)Sc2ncccc2C1=O (stereo unspecified) |
| 79 to 81 °C | CCN(C(=O)C(C)CSC)c1sc(-c2cccnc2)nc1Cl (stereo unspecified) |
| 75 to 79 °C | OCCNCCCCCCNCCO |
| 193 to 196 °C | CCOC(=NC#N)N[C@@H]1c2cc(C#N)ccc2OC(C)(C)[C@H]1O (relative stereo) |
| 40 to 45 °C | CCCCCCOC(=O)C(CSC(=O)C(C)c1ccc(CC(C)C)cc1)NC(C)=O (stereo unspecified) |
